In assay [1] the test system is human cervical cancer (HeLa) and colon carcinoma (HCT116) cells. The assay is described as follows: ATP (Vialight) cell proliferation assay, 72 hr. It counts as cell-based. The following applies: IP = inflection point, cell line not given, read-out: Prol-72 hr IP (inflection point). On the procedure: The novel compounds of the present invention were tested for their ability to inhibit proliferation of the human cervical cancer (HeLa) and colon carcinoma (HCT116) cells.
In this assay, also referred to as the Vialight Assay, cellular ATP levels are measured as a means of quantifying cellular proliferation. This assay makes use of a bioluminescent method from Cambrex (ViaLight PLUS, cat. #LT07-121). In the presence of ATP, luciferase converts luciferin to oxyluciferin and light. The amount of light produced (emission at 565 nm) is measured and correlates with a relative amount of proliferation. Human cervical cancer (HeLa) or colon carcinoma (HCT116) cells were incubated with vehicle or increasing concentrations of compound for 48, 72 or 96 hours. Cell proliferation was quantified by adding the cell lysis reagent (provided in the Vialight assay kit) directly to culture wells, followed by addition of the ATP-monitoring reagent (containing luciferase/luciferin). The amount of light produced is then measured (emission at 565 nm). The quantity of light produced, as measured by […], is directly proportional to the number of living cells in culture.

In assay [2] the target is histone deacetylase, subtype 1 (HDAC1) (Homo sapiens (Human), UniProt Q13547). The assay is described as follows: HDAC1-Flag in vitro deacetylation assay. The assay is classed as biochemical. The following applies: IP = inflection point; read-out: HDAC1 IP (inflection point). On the procedure:
Novel compounds were tested for their ability to inhibit histone deacetylase, subtype 1 (HDAC1) using an in vitro deacetylation assay. The enzyme source for this assay was an epitope-tagged human HDAC1 complex immuno-purified from stably expressing mammalian cells. The substrate consisted of a commercial product containing an acetylated lysine side chain (BIOMOL Research Laboratories, Inc., Plymouth Meeting, Pa.). Upon deacetylation of the substrate by incubation with the purified HDAC1 complex, a fluorophore is produced that is directly proportional to the level of deacetylation.

The structures appear in SMILES notation. pIC50: −log10 of the molar value.

Chain of histone deacetylase, subtype 1 (HDAC1) (Q13547 whole entry): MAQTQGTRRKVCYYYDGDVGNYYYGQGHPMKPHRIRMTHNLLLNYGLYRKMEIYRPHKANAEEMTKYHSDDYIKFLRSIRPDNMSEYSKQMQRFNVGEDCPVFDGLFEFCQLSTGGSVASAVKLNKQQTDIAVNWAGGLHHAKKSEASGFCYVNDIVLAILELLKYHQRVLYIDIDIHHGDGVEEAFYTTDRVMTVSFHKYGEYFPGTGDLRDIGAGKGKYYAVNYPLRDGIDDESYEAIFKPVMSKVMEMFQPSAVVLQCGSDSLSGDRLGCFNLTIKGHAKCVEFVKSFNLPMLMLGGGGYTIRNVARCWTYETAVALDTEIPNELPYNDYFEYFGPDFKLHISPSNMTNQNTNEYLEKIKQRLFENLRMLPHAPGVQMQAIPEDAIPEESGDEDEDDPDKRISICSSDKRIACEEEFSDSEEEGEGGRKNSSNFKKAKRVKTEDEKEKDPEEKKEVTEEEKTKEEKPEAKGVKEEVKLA

`CC(C)CNCc1ccc(C(=O)Nc2cc(-c3ccccc3)ccc2N)cc1` [Example 65, N-(4-amino-3-biphenylyl)-4-[(isobutylamino)methyl]benzamide]: the results for the pIC50 in assay [1] and in assay [2] were 6.05 and 7.46, respectively.
Turning to `Nc1ccc(-c2ccsc2)cc1NC(=O)c1ccc(CNCC(=O)O)cc1` [Example 125, {[4-({[2-amino-5-(3-thienyl)phenyl]amino}carbonyl)benzyl]amino}acetic acid], the pIC50 in assay [1] was less than 4.70; in assay [2] it was 7.38.
In the case of `Nc1ccc(-c2cccs2)cc1NC(=O)c1ccc(CNCC(=O)O)cc1` [Example 124, {[4-({[2-amino-5-(2-thienyl)phenyl]amino}carbonyl)benzyl]amino}acetic acid], the pIC50 in assay [1] was less than 4.70; in assay [2], 7.47.
As for `Nc1ccc(-c2ccccc2)cc1NC(=O)c1ccc(CNC(=O)[C@@H]2CCCN2)cc1` [Example 58, (2S)-N-(4-{[(4-aminobiphenyl-3-yl)amino]carbonyl}benzyl)pyrrolidine-2-carboxamide], the pIC50 was 6.42 in assay [1] and 7.62 in assay [2].
On to `Nc1ccc(-c2cccs2)cc1NC(=O)c1ccc(CNC(=O)Cc2cccnc2)cc1` [Example 49, N-[2-amino-5-(2-thienyl)phenyl]-4-{[(pyridin-3-ylacetyl)amino]methyl}benzamide], for which the pIC50 in assay [1] was 6.77; in assay [2] it was 8.00.
For the compound `Nc1ccc(-c2ccccc2)cc1NC(=O)c1ccc(CN2C(=O)OC[C@@H]2c2ccccc2)cc1` [Example 118, N-(4-aminobiphenyl-3-yl)-4-{[(4S)-2-oxo-4-phenyl-1,3-oxazolidin-3-yl]methyl}benzamide], the pIC50 is 5.85 in assay [1] and 7.19 in assay [2].
As to `CC(=O)NCc1ccc(C(=O)Nc2cc(-c3cccs3)ccc2N)cc1` [Example 36, 4-[(acetylamino)methyl]-N-[2-amino-5-(2-thienyl)phenyl]benzamide], the figures for the pIC50 in assay [1] and in assay [2] were 6.92 and 7.96, respectively.
Regarding `CC(C)CC(=O)NCc1ccc(C(=O)Nc2cc(-c3ccccc3)ccc2N)cc1` [Example 29, N-(4-aminobiphenyl-3-yl)-4-{[(3-methylbutanoyl)amino]methyl}benzamide], the pIC50 was 6.68 in assay [1] and 7.85 in assay [2].
Take `Nc1ccc(-c2ccccc2F)cc1NC(=O)c1ccc(CNc2ccncc2)cc1` [Example 67, N-(4-amino-2′-fluoro-3-biphenylyl)-4-[(4-pyridinylamino)methyl]benzamide]: the results for the pIC50 in assay [1] and in assay [2] were 5.68 and 7.64, respectively.
Consider `Nc1ccc(-c2cccs2)cc1NC(=O)c1ccc(CNC(=O)CCc2ccccc2)cc1` [Example 44, N-[2-amino-5-(2-thienyl)phenyl]-4-{[(3-phenylpropanoyl)amino]methyl}benzamide], for which the pIC50 was 6.70 in assay [1] and 7.62 in assay [2].
For `CCCC(=O)NCc1ccc(C(=O)Nc2cc(-c3ccccc3)ccc2N)cc1` [Example 25, N-(4-aminobiphenyl-3-yl)-4-[(butanoylamino)methyl]benzamide] the same measures were 6.66 and 7.77.
For the compound `CC(C)C(=O)NCc1ccc(C(=O)Nc2cc(-c3ccccc3)ccc2N)cc1` [Example 27, N-(4-aminobiphenyl-3-yl)-4-{[(2-methylpropanoyl)amino]methyl}benzamide], the pIC50 is 6.82 in assay [1] and 8.00 in assay [2].
With `Nc1ccc(-c2cccs2)cc1NC(=O)c1ccc(CNC(=O)Oc2ccccc2)cc1` [Example 21, phenyl {[4-({[2-amino-5-(2-thienyl)phenyl]amino}carbonyl)phenyl]methyl}carbamate], the pIC50 in assay [1] was 6.19; in assay [2] it was 7.11.
With `CCC(=O)NCc1ccc(C(=O)Nc2cc(-c3cccs3)ccc2N)cc1` [Example 37, N-[2-amino-5-(2-thienyl)phenyl]-4-[(propanoylamino)methyl]benzamide], the pIC50 is 6.89 in assay [1] and 7.92 in assay [2].
Take `Nc1ccc(-c2ccccc2)cc1NC(=O)c1ccc(CNC(=O)Cc2ccccc2)cc1` [Example 34, N-(4-aminobiphenyl-3-yl)-4-{[(phenylacetyl)amino]methyl}benzamide]: the pIC50 is 6.51 in assay [1] and 7.14 in assay [2].
For the compound `CC(=O)N(Cc1ccc(C(=O)Nc2cc(-c3cccs3)ccc2N)cc1)Cc1cn(C)nn1` [Example 123, 4-({Acetyl[(1-methyl-1H-1,2,3-triazol-4-yl)methyl]amino}methyl)-N-[2-amino-5-(2-thienyl)phenyl]benzamide], the pIC50 was 7.06 in assay [1] and 8.02 in assay [2].
`Cc1cscc1-c1ccc(N)c(NC(=O)c2ccc(CNc3ccncc3)cc2)c1` [Example 70, N-[2-amino-5-(4-methyl-3-thienyl)phenyl]-4-[(4-pyridinylamino)methyl]benzamide]: the pIC50 in assay [1] is 4.89; in assay [2] it was 6.74.
For `Nc1ccc(-c2cccs2)cc1NC(=O)c1ccc(CNC(=O)C2CCC2)cc1` [Example 43, N-[2-amino-5-(2-thienyl)phenyl]-4-{[(cyclobutylcarbonyl)amino]methyl}benzamide] the same measures were 6.89 and 7.96.
For `Nc1ccc(-c2ccccc2)cc1NC(=O)c1ccc(CNC(=O)C2CCC2)cc1` [Example 30, N-(4-aminobiphenyl-3-yl)-4-{[(cyclobutylcarbonyl)amino]methyl}benzamide] the same measures were 6.66 and 7.64.
Turning to `CCOC(=O)NCc1ccc(C(=O)Nc2cc(-c3ccccc3)ccc2N)cc1` [Example 10, ethyl[(4-{[(4-aminobiphenyl-3-yl)amino]carbonyl}phenyl)methyl]carbamate], the pIC50 in assay [1] is 6.64; in assay [2], 7.80.
For `Cc1c(CNCc2ccc(C(=O)Nc3cc(-c4ccccc4)ccc3N)cc2)cnn1C` [Example 63, N-(4-amino-3-biphenylyl)-4-({[(1,5-dimethyl-1H-pyrazol-4-yl)methyl]amino}methyl)benzamide] the same measures were 6.17 and 7.89.
Turning to `CC(=O)NCc1ccc(C(=O)Nc2cc(-c3ccccc3)ccc2N)cc1` [Example 23, 4-[(acetylamino)methyl]-N-(4-aminobiphenyl-3-yl)benzamide], the pIC50 is 6.49 in assay [1] and 7.74 in assay [2].
Consider `Nc1ccc(-c2cccs2)cc1NC(=O)c1ccc(CNC(=O)[C@@H]2CCCN2)cc1` [Example 57, (2S)-N-[4-({[2-amino-5-(2-thienyl)phenyl]amino}carbonyl)benzyl]pyrrolidine-2-carboxamide], for which the results for the pIC50 in assay [1] and in assay [2] were 6.55 and 7.74, respectively.
In the case of `Nc1ccc(-c2ccccc2)cc1NC(=O)c1ccc(CN2C(=O)OC[C@@H]2Cc2ccccc2)cc1` [Example 121, N-(4-aminobiphenyl-3-yl)-4-{[(4S)-2-oxo-4-(phenylmethyl)-1,3-oxazolidin-3-yl]methyl}benzamide], the pIC50 in assay [1] is 5.85; in assay [2], 7.02.
As for `Nc1ccc(-c2cccs2)cc1NC(=O)c1ccc(CNC(=O)Cc2ccncc2)cc1` [Example 55, N-[2-amino-5-(2-thienyl)phenyl]-4-{[(pyridin-4-ylacetyl)amino]methyl}benzamide], the pIC50 is 6.80 in assay [1] and 7.74 in assay [2].
Consider `Nc1ccc(-c2cccs2)cc1NC(=O)c1ccc(CNC(=O)CCc2cccnc2)cc1` [Example 56, N-[2-amino-5-(2-thienyl)phenyl]-4-{[(3-pyridin-3-ylpropanoyl)amino]methyl}benzamide], for which the values for the pIC50 in assay [1] and in assay [2] were 6.80 and 7.89, respectively.
As to `COC(=O)NCc1ccc(C(=O)Nc2cc(-c3cccs3)ccc2N)cc1` [Example 17, methyl {[4-({[2-amino-5-(2-thienyl)phenyl]amino}carbonyl)phenyl]methyl}carbamate], the pIC50 in assay [1] was 7.02; in assay [2] it was 8.22.
Consider `COC(=O)NCc1ccc(C(=O)Nc2cc(-c3ccccc3)ccc2N)cc1` [Example 9, methyl[(4-{[(4-aminobiphenyl-3-yl)amino]carbonyl}phenyl)methyl]carbamate], for which the figures for the pIC50 in assay [1] and in assay [2] were 6.59 and 7.77, respectively.
For `Nc1ccc(-c2cccs2)cc1NC(=O)c1ccc(CNC(=O)OCc2ccccc2)cc1` [Example 22, phenylmethyl {[4-({[2-amino-5-(2-thienyl)phenyl]amino}carbonyl)phenyl]methyl}carbamate] the same measures were 6.49 and 7.28.
For `Nc1ccc(-c2cccs2)cc1NC(=O)c1ccc(CNC(=O)C2CCCC2)cc1` [Example 46, N-[2-amino-5-(2-thienyl)phenyl]-4-{[(cyclopentylcarbonyl)amino]methyl}benzamide] the same measures were 6.85 and 7.70.
For `CN(Cc1ccc(C(=O)Nc2cc(-c3ccccc3)ccc2N)cc1)c1ccncc1` [Example 62, N-(4-amino-3-biphenylyl)-4-{[methyl(4-pyridinyl)amino]methyl}benzamide], the pIC50 was 5.44 in assay [1] and 8.00 in assay [2].

The record behind these values is patent US9096559B2, “4-carboxybenzylamino derivatives as histone deacetylase inhibitors” (Merck Sharp & Dohme Corp., priority 2007, dated 2015).
